The text below walks through data of patent US11084829B2, “Ubiquitin-specific-processing protease 7 (USP7) modulators and uses thereof” (RAPT THERAPEUTICS, INC., priority 2018, dated 2021).

The assay addresses USP7 (Homo sapiens, UniProt Q93009). In words: USP7 inhibitory potency (IC50). It is filed as biochemical. The method, then:
Activity for compounds described herein is provided in Table 2, wherein potency levels are provided as follows: (Potency: USP7 IC50: A<0.01 μM; B=0.01-0.1 μM; C=>0.1 μM.

In general, IC50 refers to the concentration that gives 50% inhibition. A higher IC50 goes with weaker potency in that assay.

Structures are written as SMILES.

Chain of USP7 (Q93009 whole entry): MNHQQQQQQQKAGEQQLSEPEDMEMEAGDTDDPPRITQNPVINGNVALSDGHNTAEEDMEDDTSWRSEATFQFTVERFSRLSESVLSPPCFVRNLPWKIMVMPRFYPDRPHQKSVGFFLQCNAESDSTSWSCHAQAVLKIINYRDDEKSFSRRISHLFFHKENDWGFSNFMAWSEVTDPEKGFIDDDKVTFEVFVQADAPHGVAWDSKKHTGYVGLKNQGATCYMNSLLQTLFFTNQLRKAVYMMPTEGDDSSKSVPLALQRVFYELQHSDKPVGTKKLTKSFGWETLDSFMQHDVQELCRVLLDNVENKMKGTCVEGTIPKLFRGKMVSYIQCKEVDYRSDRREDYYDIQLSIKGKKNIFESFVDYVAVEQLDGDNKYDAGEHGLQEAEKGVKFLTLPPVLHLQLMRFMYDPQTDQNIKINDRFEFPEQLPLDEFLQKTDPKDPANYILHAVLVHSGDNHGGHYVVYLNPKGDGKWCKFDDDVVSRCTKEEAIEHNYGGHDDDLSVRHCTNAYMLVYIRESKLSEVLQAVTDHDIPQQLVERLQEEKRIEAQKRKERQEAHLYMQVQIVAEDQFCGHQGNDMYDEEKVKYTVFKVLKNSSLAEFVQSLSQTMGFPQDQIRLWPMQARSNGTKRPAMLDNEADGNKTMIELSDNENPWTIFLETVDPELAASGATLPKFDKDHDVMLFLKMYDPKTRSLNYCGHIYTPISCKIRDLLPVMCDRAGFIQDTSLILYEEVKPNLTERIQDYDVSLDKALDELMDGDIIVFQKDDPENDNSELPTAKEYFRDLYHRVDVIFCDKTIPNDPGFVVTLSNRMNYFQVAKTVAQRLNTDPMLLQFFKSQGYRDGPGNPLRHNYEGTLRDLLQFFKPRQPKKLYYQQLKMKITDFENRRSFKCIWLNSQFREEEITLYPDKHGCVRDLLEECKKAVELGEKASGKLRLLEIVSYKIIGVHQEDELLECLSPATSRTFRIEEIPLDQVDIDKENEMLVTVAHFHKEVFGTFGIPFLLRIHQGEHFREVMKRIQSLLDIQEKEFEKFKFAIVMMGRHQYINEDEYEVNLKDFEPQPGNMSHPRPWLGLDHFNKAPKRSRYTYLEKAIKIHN

In turn, `Cc1cc(Cl)cc(-c2ccnc3cc(CN4C(=O)C5CC5C4=O)sc23)c1C[C@@H]1CNCCO1` (stereo partly drawn) [Example 123, 3-((7-(5-chloro-3-methyl-2-(((R)-morpholin-2-yl)methyl)phenyl)thieno[3,2-b]pyridin-2-yl)methyl)-3-azabicyclo[3.1.0]hexane-2,4-dione] came in with a half-maximal inhibitory concentration (IC50) of less than 10 nM.
With `Cc1cc(Cl)cc(-c2ccnc3c(F)c(CN4C(=O)C5CC5C4=O)sc23)c1C[C@@H]1CNCCO1` (stereo partly drawn) [Example 125, 3-((7-(5-chloro-3-methyl-2-(((R)-morpholin-2-yl)methyl)phenyl)-3-fluorothieno[3,2-b]pyridin-2-yl)methyl)-3-azabicyclo[3.1.0]hexane-2,4-dione] the figure was less than 10 nM; with `Cc1cc(Cl)cc(-c2ccnc3cc(CN4C(=O)CN(C)C4=O)sc23)c1C[C@@H]1CNCCO1` [Example 126, (R)-3-((7-(5-chloro-3-methyl-2-(morpholin-2-ylmethyl)phenyl)thieno[3,2-b]pyridin-2-yl)methyl)-1-methylimidazolidine-2,4-dione], less than 10 nM.
Take `O=C1CCC(=O)N1Cc1cc2nccc(-c3cc(Cl)cc(Cl)c3CC3CNCCO3)c2s1` (centres unmarked) [Example 127, 1-((7-(3,5-dichloro-2-(morpholin-2-ylmethyl)phenyl)thieno[3,2-b]pyridin-2-yl)methyl)pyrrolidine-2,5-dione]: the IC50 is less than 10 nM.
With `CC1(C)CNCC(Cc2c(Cl)cc(Cl)cc2-c2ccnc3cc(CN4C(=O)CCC4=O)sc23)O1` (centres unmarked) [Example 128, 1-((7-(3,5-dichloro-2-((6,6-dimethylmorpholin-2-yl)methyl)phenyl)thieno[3,2-b]pyridin-2-yl)methyl)pyrrolidine-2,5-dione] the figure was less than 10 nM; with `Cc1cc(Cl)cc(-c2ccnc3cc(CN4C(=O)C5CC5C4=O)sc23)c1C[C@@H]1CNCC(C)(C)O1` (stereo partly drawn) [Example 129, 3-((7-(5-chloro-2-(((R)-6,6-dimethylmorpholin-2-yl)methyl)-3-methylphenyl)thieno[3,2-b]pyridin-2-yl)methyl)-3-azabicyclo[3.1.0]hexane-2,4-dione], less than 10 nM; with `CN1CCC(=O)N(Cc2cc3nccc(-c4cc(Cl)cc(Cl)c4CC4CNCCO4)c3s2)C1=O` (centres unmarked) [Example 130, 3-((7-(3,5-dichloro-2-(morpholin-2-ylmethyl)phenyl)thieno[3,2-b]pyridin-2-yl)methyl)-1-methyldihydropyrimidine-2,4(1H,3H)-dione], less than 10 nM.
Consider `Cc1cc(Cl)cc(-c2ccnc3cc(CN4C(=O)C5CC5C4=O)sc23)c1CC1CNCC2(CCC2)O1` (centres unmarked) [Example 131, 3-((7-(2-((5-oxa-8-azaspiro[3.5]nonan-6-yl)methyl)-5-chloro-3-methylphenyl)thieno[3,2-b]pyridin-2-yl)methyl)-3-azabicyclo[3.1.0]hexane-2,4-dione], for which the 50% inhibitory concentration (IC50) is less than 10 nM.
With `Cc1cc(Cl)cc(-c2ccnc3cc(CN4C(=O)C5CC5C4=O)sc23)c1CC1CNCC2(CC2)O1` (centres unmarked) [Example 132, 3-((7-(2-((4-oxa-7-azaspiro[2.5]octan-5-yl)methyl)-5-chloro-3-methylphenyl)thieno[3,2-b]pyridin-2-yl)methyl)-3-azabicyclo[3.1.0]hexane-2,4-dione] the figure was less than 10 nM; with `Cc1cc(Cl)cc(-c2ccnc3cc([C@H](C)N4C(=O)C5C(C4=O)C5(C)C)sc23)c1C[C@@H]1CNCCO1` (stereo partly drawn) [Example 133, 3-((S)-1-(7-(5-chloro-3-methyl-2-(((R)-morpholin-2-yl)methyl)phenyl)thieno[3,2-b]pyridin-2-yl)ethyl)-6,6-dimethyl-3-azabicyclo[3.1.0]hexane-2,4-dione], less than 10 nM; with `Cc1cc(Cl)cc(-c2ccnc3cc(CN4C(=O)C5CC5C4=O)sc23)c1C[C@H]1CNCC(C)(C)O1` (stereo partly drawn) [Example 134, 3-((7-(5-chloro-2-(((S)-6,6-dimethylmorpholin-2-yl)methyl)-3-methylphenyl)thieno[3,2-b]pyridin-2-yl)methyl)-3-azabicyclo[3.1.0]hexane-2,4-dione], 10 to 100 nM.
On to `CN1CCC(=O)N(Cc2cc3nccc(-c4cc(Cl)cc(Cl)c4CC4CNCC(C)(C)O4)c3s2)C1=O` (centres unmarked) [Example 135, 3-((7-(3,5-dichloro-2-((6,6-dimethylmorpholin-2-yl)methyl)phenyl)thieno[3,2-b]pyridin-2-yl)methyl)-1-methyldihydropyrimidine-2,4(1H,3H)-dione], for which the half-inhibitory concentration (IC50) is less than 10 nM.
With `Cc1cc(Cl)cc(-c2ccnc3cc(CN4C(=O)CCC4=O)sc23)c1C[C@@H]1CNCC(C)(C)O1` [Example 136, (R)-1-((7-(5-chloro-2-((6,6-dimethylmorpholin-2-yl)methyl)-3-methylphenyl)thieno[3,2-b]pyridin-2-yl)methyl)pyrrolidine-2,5-dione] the figure was less than 10 nM; with `Cc1cc(Cl)cc(-c2ccnc3cc([C@H](C)N4C(=O)C5CC5C4=O)sc23)c1C[C@@H]1CNCC(C)(C)O1` (stereo partly drawn) [Example 137, 3-((S)-1-(7-(5-chloro-2-(((R)-6,6-dimethylmorpholin-2-yl)methyl)-3-methylphenyl)thieno[3,2-b]pyridin-2-yl)ethyl)-3-azabicyclo[3.1.0]hexane-2,4-dione], less than 10 nM; with `Cc1cc(Cl)cc(-c2ccnc3cc(CN4C(=O)C5CC5C4=O)sc23)c1CC1CNCC2(COC2)O1` (centres unmarked) [Example 138, 3-((7-(2-((2,5-dioxa-8-azaspiro[3.5]nonan-6-yl)methyl)-5-chloro-3-methylphenyl)thieno[3,2-b]pyridin-2-yl)methyl)-3-azabicyclo[3.1.0]hexane-2,4-dione], less than 10 nM.
Take `CC1(C)CNCC(Cc2c(Cl)cc(Cl)cc2-c2ccnc3cc(CN4C(=O)C5CC5C4=O)sc23)O1` (centres unmarked) [Example 139, 3-((7-(3,5-dichloro-2-((6,6-dimethylmorpholin-2-yl)methyl)phenyl)thieno[3,2-b]pyridin-2-yl)methyl)-3-azabicyclo[3.1.0]hexane-2,4-dione]: the IC50 is less than 10 nM.
Take `CC1(C)C2C(=O)N(Cc3cc4nccc(-c5cc(Cl)cc(Cl)c5CC5CNCCO5)c4s3)C(=O)C21` (centres unmarked) [Example 140, 3-((7-(3,5-dichloro-2-(morpholin-2-ylmethyl)phenyl)thieno[3,2-b]pyridin-2-yl)methyl)-6,6-dimethyl-3-azabicyclo[3.1.0]hexane-2,4-dione]: the IC50 is less than 10 nM.
`CN1CC(=O)N(Cc2cc3nccc(-c4cc(Cl)cc(Cl)c4CC4CNCCO4)c3s2)C1=O` (centres unmarked) [Example 141, 3-((7-(3,5-dichloro-2-(morpholin-2-ylmethyl)phenyl)thieno[3,2-b]pyridin-2-yl)methyl)-1-methylimidazolidine-2,4-dione] showed a 50% inhibitory concentration (IC50) of less than 10 nM.
With `Cn1ccc(=O)n(Cc2cc3nccc(-c4cc(Cl)cc(Cl)c4CC4CNCCO4)c3s2)c1=O` (centres unmarked) [Example 142, 3-((7-(3,5-dichloro-2-(morpholin-2-ylmethyl)phenyl)thieno[3,2-b]pyridin-2-yl)methyl)-1-methylpyrimidine-2,4(1H,3H)-dione] the figure was less than 10 nM.
With `Cc1cc(Cl)cc(-c2ccnc3cc(CN4C(=O)CCC4=O)sc23)c1CC1CNCC2(CCC2)O1` (centres unmarked) [Example 143, 1-((7-(2-((5-oxa-8-azaspiro[3.5]nonan-6-yl)methyl)-5-chloro-3-methylphenyl)thieno[3,2-b]pyridin-2-yl)methyl)pyrrolidine-2,5-dione] the figure was less than 10 nM.
